In article PMC4720136 (Journal of the American Chemical Society, 2015):

Target: EncM (Streptomyces maritimus, UniProt Q9KHK2)
Test: stopped-flow flavin reduction at […] nm, hyperbolic fit of kobs
Type: biochemical
Conditions: read-out: apparent Kd; EncM-Flox (oxidized, inactive flavin form), anaerobic, 4 °C, 0.1 M Tris-H2SO4 pH 7.5, 10% glycerol

| Kd [mM] | SMILES |
| --- | --- |
| 9.3 ± 0.3 | NC(=O)C1=CN([C@@H]2O[C@H](COP(=O)(O)OP(=O)(O)OC[C@H]3O[C@@H](n4cnc5c(N)ncnc54)[C@H](O)[C@@H]3O)[C@@H](O)[C@H]2O)C=CC1 [NADH] |
| 0.26 ± 0.01 | NC(=O)C1=CN([C@@H]2O[C@H](COP(=O)(O)OP(=O)(O)OC[C@H]3O[C@@H](n4cnc5c(N)ncnc54)[C@H](OP(=O)(O)O)[C@@H]3O)[C@@H](O)[C@H]2O)C=CC1 [NADPH] |
